Measured values published in ChEMBL document CHEMBL1201862, “PubChem BioAssay data set” (2004).
Calls of active or inactive are those of the source. For most assays here, no stated cut-off is given here; in the data, actives have a measured EC50 and inactives only a lower limit.

Tests used:
[1] = Trypanosoma cruzi growth suppression in host cells – NIH3T3 host cells, beta-gal luminescence, confirmation (AID 2044); type: functional, cell-based;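 further: intracellular parasites grown in NIH/3T3 mouse fibroblasts as host cells; luminescent beta-galactosidase reporter signal from transgenic T. cruzi replicating inside host cells; inhibitors lower the luminescence signal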
[2] = NIH3T3 cell viability loss – ATP luminescence, mouse fibroblasts, counter-screen, dose response (AID 2010); type: functional, cell-based;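 further: cells exposed to compound for about 90 hours before reading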
Cytochrome P450 1A2 = target: T1, Cytochrome P450 1A2 (Homo sapiens, UniProt P05177);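 further: PubChem cytochrome P450 panel assay, CYP1A2 panel member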
T1 sequence (P05177 whole entry): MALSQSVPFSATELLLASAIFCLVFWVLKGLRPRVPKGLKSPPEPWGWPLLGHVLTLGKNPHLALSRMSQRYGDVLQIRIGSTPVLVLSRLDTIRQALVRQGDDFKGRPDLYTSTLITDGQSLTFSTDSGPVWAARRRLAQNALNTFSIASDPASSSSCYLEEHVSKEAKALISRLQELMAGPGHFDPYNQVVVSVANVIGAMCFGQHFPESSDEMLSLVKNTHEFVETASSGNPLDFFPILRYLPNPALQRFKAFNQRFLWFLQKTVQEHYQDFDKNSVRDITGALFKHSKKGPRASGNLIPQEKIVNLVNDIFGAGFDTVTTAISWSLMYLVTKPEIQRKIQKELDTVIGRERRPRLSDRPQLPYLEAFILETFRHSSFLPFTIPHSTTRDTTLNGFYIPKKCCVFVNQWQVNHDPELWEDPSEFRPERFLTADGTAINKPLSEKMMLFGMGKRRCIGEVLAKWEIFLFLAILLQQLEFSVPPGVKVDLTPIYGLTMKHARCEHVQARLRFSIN

[3] = tested on: Streptococcus sp. 'group A'; experiment: Streptococcus pyogenes SK(-)GAS viability under kanamycin – luminescence, BacTiterGlo, confirmation, counter-screen for streptokinase expression inhibitor project, dose response (AID 1900); type: functional, organism-based
Streptokinase A = target: T2, Streptokinase A (Streptococcus pyogenes serotype M1, UniProt P10520); experiment: viability-normalized secreted streptokinase activity reduction – plasminogen activation absorbance, OD405, dose response (AID 1914); type: functional, Streptococcus pyogenes M1 GAS;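 further: secreted streptokinase activity via plasminogen activation per viability signal from cell pellet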
T2 sequence (P10520 whole entry): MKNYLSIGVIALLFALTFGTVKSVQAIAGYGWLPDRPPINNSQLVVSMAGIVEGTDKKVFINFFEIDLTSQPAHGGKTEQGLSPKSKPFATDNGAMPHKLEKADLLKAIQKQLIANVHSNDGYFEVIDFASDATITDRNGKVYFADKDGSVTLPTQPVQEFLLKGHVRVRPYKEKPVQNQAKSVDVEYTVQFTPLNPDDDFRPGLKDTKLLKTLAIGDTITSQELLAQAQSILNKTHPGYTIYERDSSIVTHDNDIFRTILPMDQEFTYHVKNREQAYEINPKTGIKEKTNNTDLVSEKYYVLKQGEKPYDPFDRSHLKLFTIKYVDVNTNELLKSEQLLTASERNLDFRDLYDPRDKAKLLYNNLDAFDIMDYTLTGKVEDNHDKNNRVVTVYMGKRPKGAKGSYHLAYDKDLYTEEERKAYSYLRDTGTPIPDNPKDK

Streptococcus = experiment: GAS UMAA2166 growth inhibition – luminescence, BacTiterGlo, counter-screen for streptokinase expression inhibitor project, dose response (AID 1915); type: functional, organism-based;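 further: potency for reduction of bacterial viability or growth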
[4] = viability of uninfected HEp-2 cells – cell-based, HTS, cytotoxicity control for RSV inhibitor project, dose response (AID 2410); type: functional; settings: human respiratory syncytial virus
INS1 = experiment: INS-1E survival protection against cytokine death – cell-based, luminescence, retest, dose response (AID 449756); type: functional; settings: Rattus norvegicus;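 further: cell death triggered by IL-1 beta plus TNF-alpha plus IFN-gamma mixture; protective hits raise ATP signal compared with cytokine alone wells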

Compound: CCOc1ccccc1OCCOCCN1CCN(Cc2ccccc2)CC1
- EC50 [1]: 0.633 µM (active)
- EC50 [2]: > 60 µM (not active)

Compound: COc1ccc(C(=O)CC(Nc2ccc([N+](=O)[O-])cc2)c2ccc(Cl)cc2)cc1 (stereo unspecified)
- EC50 [1]: 2.27 µM (active)
- EC50 [2]: > 60 µM (not active)

Compound: Cc1ccc(C2NC(c3ccc(C)cc3)C(C)C(=NO)C2C)cc1 (stereo unspecified)
- AC50 (Cytochrome P450 1A2): 15.8 µM (inconclusive)

Compound: CCOC(=O)c1[nH]c(C)c(C(=O)OCC(=O)N2c3ccccc3CC2C)c1C (stereo unspecified)
- AC50 (Cytochrome P450 1A2): 12.6 µM (inconclusive)

Compound: O=C(C1=C(O)C(=O)N(Cc2ccco2)C1c1cccc(Cl)c1)c1ccco1 (stereo unspecified)
- EC50 [3]: 22.7 µM (active)
- EC50 (Streptokinase A): > 150 µM (not active)
- EC50 (Streptococcus): > 150 µM (not active)

Compound: CCCNC(=O)CCc1c(C)nc2c(c(C)nn2-c2ccc(C)cc2)c1C
- EC50 [1]: 1.8 µM (active)
- EC50 [2]: > 60 µM (not active)

Compound: COc1ccccc1NC(=O)Nc1nc(CC(=O)N2CCN(c3ccccc3OC)CC2)cs1
- CC50 [4]: 15.2 µM (active)

Compound: CC(=O)Nc1ccc(S(=O)(=O)N2c3ccccc3NC(=O)CC2C)c(Cl)c1 (stereo unspecified)
- AC50 (INS1): > 260 µM (inactive)

Compound: CC1CCN(C(=O)CCNS(=O)(=O)c2ccc(Br)cc2)CC1
- AC50 (INS1): > 260 µM (inactive)

Compound: Cc1csc2ncnc(N3CCN(S(=O)(=O)c4cccc(C(F)(F)F)c4)CC3)c12
- AC50 (INS1): 3.86 µM (active)

Compound: Clc1cccc(-c2cc3nc4c(c(N5CCN(c6cnccn6)CC5)n3n2)CCCC4)c1
- CC50 [4]: 35.2 µM (active)

Compound: CC(C)c1nc(-c2ccccc2)c(-c2ccccc2)[nH]1
- AC50 (INS1): 7.08 µM (active)

Compound: O=C(CCN1CCN(C/C=C/c2ccccc2)CC1)Nc1cccc(F)c1
- EC50 [1]: 0.383 µM (active)
- EC50 [2]: 21.9 µM (active)

Compound: COc1ccc2c(c1)c(CC(=O)NCc1cc([N+](=O)[O-])ccc1O)c(C)n2C(=O)c1ccc(Cl)cc1
- EC50 [3]: 19.1 µM (active)
- EC50 (Streptokinase A): 20.2 µM (active)
- EC50 (Streptococcus): > 150 µM (not active)

Compound: CCOc1ccccc1CN1CCCC(CNC(=O)Cc2ccc(OC)cc2)C1 (stereo unspecified)
- EC50 [1]: 1.33 µM (active)
- EC50 [2]: > 60 µM (not active)

Compound: CCCCc1nc2cc(C(=O)N3CCC(OCCOC)CC3)ccc2o1
- EC50 [3]: > 150 µM (not active)
- EC50 (Streptokinase A): > 150 µM (not active)
- EC50 (Streptococcus): > 150 µM (not active)

Compound: CCCCN(CC)CCNC(=O)c1cn(-c2ccc(Cl)cc2)c(=O)c2ccccc12
- EC50 [1]: 0.896 µM (active)
- EC50 [2]: > 60 µM (inconclusive)

Compound: Nc1nc(Nc2ccccc2)nc2c1ncn2[C@@H]1O[C@@H](CO)[C@H](O)[C@H]1O
- AC50 (Cytochrome P450 1A2): 39.8 µM (inconclusive)

Compound: CCCCCn1c(=O)c(C(=O)Nc2ncccc2C)c(O)c2ccccc21
- AC50 (INS1): 10.4 µM (active)

Compound: COc1ccc(N2CCN(C(CNS(=O)(=O)c3cc(F)ccc3F)c3cccnc3)CC2)cc1 (stereo unspecified)
- EC50 [1]: 0.206 µM (active)
- EC50 [2]: > 60 µM (not active)

Compound: CCOC(=O)c1ccc(Oc2c[nH]nc2-c2ccc(OCC(=O)NN)cc2O)cc1
- EC50 [3]: > 150 µM (not active)
- EC50 (Streptokinase A): > 150 µM (not active)
- EC50 (Streptococcus): > 150 µM (not active)

Compound: COc1cccc(C(=O)Nc2cccc(-c3nnc(-c4ccccc4)o3)c2)c1
- EC50 [3]: 23.2 µM (active)
- EC50 (Streptokinase A): > 150 µM (not active)
- EC50 (Streptococcus): 57.9 µM (active)

Compound: CCOC(=O)c1cnc2ccc(OCC)cc2c1N1CCN(c2ccccc2)CC1
- AC50 (INS1): 14.9 µM (active)

Compound: N#CCCn1c(=O)c(-c2ccc(Cl)cc2)nc2cnc(Oc3ccccc3)nc21
- AC50 (Cytochrome P450 1A2): 0.501 µM (inconclusive)

Compound: Cc1cc(C)nc(SCC(=O)NC2=NN=C(c3ccc(Br)cc3)CS2)n1
- EC50 [3]: 2.6 µM (active)
- EC50 (Streptokinase A): > 150 µM (not active)
- EC50 [1]: 1.65 µM (active)
- EC50 [2]: > 60 µM (inconclusive)
- EC50 (Streptococcus): 3.62 µM (active)
- AC50 (INS1): 4.78 µM (active)

Compound: COC(=O)[C@@]1(Cc2ccc(OC)cc2)[C@H]2c3cc(C(=O)N(C)C)[nH]c3C[C@H]2CN1C(=O)c1ccccc1
- AC50 (Cytochrome P450 1A2): 20 µM (inconclusive)

Compound: COCCNC(=O)COc1ccc(Oc2ccccc2)cc1
- AC50 (Cytochrome P450 1A2): 25.1 µM (inconclusive)

Compound: COc1ccc(CCn2c(-c3cc([N+](=O)[O-])cc([N+](=O)[O-])c3)nc3nc4ccccc4nc32)cc1OC
- EC50 [1]: 0.105 µM (active)
- EC50 [2]: > 60 µM (not active)

Compound: CCOCC(=O)Nc1ccc([N+](=O)[O-])cc1OC
- CC50 [4]: > 50 µM (active)

Compound: Cc1onc(-c2c(F)cccc2Cl)c1C(=O)NCc1ccc2c(c1)OCO2
- EC50 [3]: > 150 µM (not active)
- EC50 (Streptokinase A): > 150 µM (not active)
- EC50 (Streptococcus): > 150 µM (not active)

Compound: O=C1CCC(/C=C/c2ccccc2)=NN1Cc1ccccc1Cl
- CC50 [4]: 27 µM (active)

Compound: Cc1cccc2c1-c1sc(C(=O)N3CCc4ccccc4C3)cc1CO2
- CC50 [4]: 11.6 µM (active)

Compound: CCCc1cc(COC)c(C#N)c(O)n1
- AC50 (Cytochrome P450 1A2): 6.31 µM (inconclusive)

Compound: CCCCOc1ccc(/C=C/C2=CC(C)(C)NC(S)=N2)cc1OCC
- EC50 [1]: 0.774 µM (active)
- EC50 [2]: > 60 µM (inconclusive)

Compound: COc1cccc(C(=O)OC2CCN(C)CC2)c1
- EC50 [1]: 0.233 µM (active)
- EC50 [2]: > 30 µM (not active)

Compound: N#Cc1cccc(-c2nc3cnc(N4CCOCC4)nc3n(C[C@H]3CCCO3)c2=O)c1
- AC50 (Cytochrome P450 1A2): 0.794 µM (inconclusive)

Compound: CCCN=C(S)N1CCN(c2nc(C)nc3sc4c(c23)CCCC4)CC1
- CC50 [4]: 11.2 µM (active)

Compound: O=C(Nc1ccccc1N1CCCCC1)c1cc(S(=O)(=O)N2CCOCC2)ccc1Cl
- CC50 [4]: 21.7 µM (active)

Compound: COc1cccc(C(=O)Nc2nc(-c3ccccc3)c(-c3ccccc3)o2)c1
- EC50 [3]: 1.44 µM (active)
- EC50 (Streptococcus): 5.62 µM (active)

Compound: COc1cccc(N/C(C)=C/C(=O)c2ccc(Br)cc2)c1
- CC50 [4]: 25.5 µM (active)

Compound: CCOC(=O)C1CCN(C(=O)C(=O)c2cn(CC(=O)N3CCCCCC3)c3ccccc23)CC1
- EC50 [1]: 0.763 µM (active)
- EC50 [2]: > 60 µM (not active)

Compound: CN(Cc1ccco1)c1ncncc1-c1cccc(C#N)c1
- AC50 (Cytochrome P450 1A2): 12.6 µM (inconclusive)

Compound: CCn1c(=O)c(C(=O)NNC(=O)c2ccc(Cl)cc2Cl)c(O)c2ccccc21
- EC50 [3]: 3.62 µM (active)
- EC50 (Streptococcus): 7.58 µM (active)

Compound: COC(=O)C1=C(c2ccccc2OCc2ccccc2)C[C@@H]2CC[C@H]1N2C(=O)NCc1ccc([N+](=O)[O-])cc1
- CC50 [4]: 37.6 µM (active)

Compound: COc1cc(/C(C)=C/c2ccccc2)c2c(c1)oc1ccccc12
- EC50 [3]: 2.3 µM (active)
- EC50 (Streptokinase A): 20.9 µM (active)
- EC50 (Streptococcus): > 150 µM (not active)

Compound: CC(C)(C)c1ccc(OCC(=O)N2CCN(c3ncccn3)CC2)cc1
- EC50 [3]: > 150 µM (not active)
- EC50 (Streptokinase A): > 150 µM (not active)
- EC50 (Streptococcus): > 150 µM (not active)

Compound: COc1ccc(C(=O)NC(=S)NNC(=O)COc2ccccc2)cc1
- EC50 [3]: 2.23 µM (active)
- EC50 (Streptococcus): 3.64 µM (active)

Compound: Fc1cccc(Cc2noc(CN3CCCN(C4Cc5ccccc5C4)CC3)n2)c1
- EC50 [1]: 0.57 µM (active)
- EC50 [2]: 45.2 µM (active)

Compound: CCCC[C@@H]1C[C@H]1C(NC(=O)c1ccc(C(F)(F)F)cc1)c1ccc(C(=O)OC)cc1 (stereo partly specified)
- AC50 (Cytochrome P450 1A2): 15.8 µM (inconclusive)

Compound: COCCn1c(=O)c(-c2cn(C)c3ccccc23)nc2cnc(Oc3ccccc3)nc21
- AC50 (Cytochrome P450 1A2): 10 µM (inconclusive)

Compound: Cc1ccc(-c2cccc(C(=O)NCCc3ccccc3)n2)c2ccccc12
- CC50 [4]: 16.2 µM (active)

Compound: N=C(N)C(/N=N\c1ccccc1)C(=N)N (stereo unspecified)
- AC50 (Cytochrome P450 1A2): 5.01 µM (inconclusive)

Compound: O=C1N=C(N/N=C/c2ccccc2O)SC1Cc1ccc(F)cc1 (stereo unspecified)
- EC50 [3]: 16 µM (active)
- EC50 (Streptokinase A): > 150 µM (not active)
- EC50 (Streptococcus): > 150 µM (not active)
- AC50 (INS1): 4.67 µM (active)

Compound: COc1ccc(/N=C2/SCC(c3ccc([N+](=O)[O-])cc3)=NN2CCO)cc1
- CC50 [4]: 15.8 µM (active)

Compound: NC(=O)N/N=C(/CCCCCC/C(=N\NC(N)=O)c1ccccc1)c1ccccc1
- EC50 [3]: 26.6 µM (active)
- EC50 (Streptokinase A): > 150 µM (not active)
- EC50 (Streptococcus): > 150 µM (not active)

Compound: C=CCNC(=S)N/N=C/c1ccc(OCc2ccccc2Cl)cc1
- EC50 [1]: 1.65 µM (active)
- EC50 [2]: > 30 µM (not active)

Compound: Cc1ccc(-n2c(-c3ccccc3)cc(/C=N/NC(=O)CC#N)c2-c2ccccc2)cc1
- EC50 [1]: 1.72 µM (active)
- EC50 [2]: > 60 µM (not active)

Compound: O=C1N(c2ccccc2)c2ccccc2C1(Cc1ccncc1)Cc1ccncc1 [LINOPIRDINE]
- AC50 (Cytochrome P450 1A2): 31.6 µM (inconclusive)
